Earlier results, collected in Sander's compilation of Henry's law constants (doi:10.2175/wer.65.7.2).

Test: Henry solubility constant Hcp at 298.15 K (mol/(m3 Pa))
Settings: reference: Smith et al. (1993); cited value

First: c1ccc2c(c1)ccc1c3ccccc3ccc21 [chrysene]
Second: c1ccc2c(c1)ccc1cc3c(ccc4ccccc43)cc12 [dibenz[a,h]anthracene]
The “Henry solubility constant Hcp” value of the first is lower: 9.4 for the first, 140 for the second.

First: C1=Cc2cccc3cccc1c23 [acenaphthylene]
Second: c1cc2c3c(cccc3c1)CC2 [acenaphthene]
The “Henry solubility constant Hcp” value of the first is higher: 0.087 for the first, 0.041 for the second.

Compared with `c1ccc2c(c1)-c1cccc3c1c-2cc1ccccc13` [benzo[b]fluoranthene], `c1ccc2c(c1)-c1cccc3cccc-2c13` [benzo[jk]fluorene] is higher in “Henry solubility constant Hcp” value: 0.83 for the first, 1.5 for the second.

First: c1ccc2c(c1)-c1ccc3ccc4cccc5cc-2c1c3c45 [indeno[1,2,3-cd]pyrene]
Second: c1ccc2c(c1)cc1ccc3cccc4ccc2c1c34 [benzo[a]pyrene]
The “Henry solubility constant Hcp” value of the first is higher: 140 for the first, 20 for the second.

Going from `c1ccc2cc3ccccc3cc2c1` [anthracene] to `c1ccc2ccccc2c1` [naphthalene], the “Henry solubility constant Hcp” value falls from 0.11 to 0.02.

Compared with `c1ccc2c(c1)Cc1ccccc1-2` [2,3-benzindene], `c1ccc2cc3c(cc2c1)-c1cccc2cccc-3c12` [benzo[k]fluoranthene] is higher in “Henry solubility constant Hcp” value: 0.084 for the first, 0.25 for the second.

Compared with `Cc1ccc(O)c(C)c1` [1-hydroxy-2,4-dimethylbenzene], `c1cc2ccc3ccc4ccc5cccc6c(c1)c2c3c4c56` [benzo[ghi]perylene] is higher in “Henry solubility constant Hcp” value: 0.58 for the first, 180 for the second.

Test: Henry solubility constant Hcp at 294 K (mol/(m3 Pa))
Settings: reference: Smith et al. (1993); cited value

In the case of `c1ccc2c(c1)ccc1ccccc12` [phenanthrene], the “Henry solubility constant Hcp at 294 K” value is listed as 0.25.

Test: Henry solubility constant Hcp at 293 K (mol/(m3 Pa))
Settings: reference: Smith et al. (1993); cited value

Compared with `Cc1ccccc1` [methylbenzene], `c1ccccc1` [benzene] is higher in “Henry solubility constant Hcp at 293 K” value: 0.0017 for the first, 0.0018 for the second.
